From patent US20190185865A1, “USE OF PROKARYOTIC TRANSCRIPTIONAL ACTIVATORS AS METABOLITE BIOSENSORS IN EUKARYOTIC CELLS” (Danmarks Tekniske Universitet, priority 2016, published 2019) come the findings set out here.

Structures are written as SMILES. Several values for one entry are separate records, joined by “and”; a condition that tells them apart may be missing. Identical values can stand only once.

For assay [1], the target named is T1, BenM^H110R, F211V, Y286N (Acinetobacter baylyi, UniProt O68014, F211V/H110R/Y286N).
T1 construct: expressed in transfected cells; host or cells: Saccharomyces cerevisiae; centromeric plasmid (gap repair) or chromosomal integration, REV1p
T1 sequence (O68014 whole entry H110R/F211V/Y286N): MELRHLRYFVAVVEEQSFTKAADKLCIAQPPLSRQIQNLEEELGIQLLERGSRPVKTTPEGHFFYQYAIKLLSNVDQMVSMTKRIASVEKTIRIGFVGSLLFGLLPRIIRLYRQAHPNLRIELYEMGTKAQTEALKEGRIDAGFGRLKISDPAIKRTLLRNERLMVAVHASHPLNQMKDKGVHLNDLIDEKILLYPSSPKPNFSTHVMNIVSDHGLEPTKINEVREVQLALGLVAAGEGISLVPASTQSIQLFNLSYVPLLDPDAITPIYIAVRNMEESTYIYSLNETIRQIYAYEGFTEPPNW
The experiment in a line: CCM-induced GFP expression in yeast expressing engineered BenM variants (epPCR library, FACS, flow cytometry). The assay is classed as cell-based, Saccharomyces cerevisiae. An excerpt: For optimization of the CCM inducibility of BenM, purified products from three consecutive rounds of error-prone PCR (epPCR) of the effector-binding domain (EBD, residues 90-304) of BenM, were co-transformed into yeast together with linearized centromeric plasmid according to Eckert-Boulet et al. (Eckert-Boulet, N., Pedersen, M. L., Krogh, B. O. & Lisby, M. Optimization of ordered plasmid assembly by gap repair in Saccharomyces cerevisiae. Yeast 29, 323-34 (2012)), to allow for in vivo gap repair and library reconstitution of wild-type BenM DNA binding domain (DBD) fused to EBD variants expressed from REV1p. For epPCR we used the GeneMorph II kit according to manufacturer's description (Agilent Technologies). Transformed yeast contained a chromosomal integration of the 209 bp_CYC1p_BenO_T1 promoter controlling the expressing of GFP at EasyClone site 4 on chromosome XII (Mikkelsen, M. D. et al. Microbial production of indolylglucosinolate through engineering of a multi-gene pathway in a versatile yeast expression platform. Metab. Eng. 14, 104-11 (2012)), to allow for FACS-based screening of improved CCM-inducible BenM variants.
A two-step method was used to sort for BenM variants that specifically induce in the presence of CCM. Cells (10× library size, approx. 400,000 cells) were inoculated in mineral medium without inducer and incubated for 24 h at 30° C., diluted into PBS, and then GFP intensity of individual cells was measured using a BD Biosciences Aria (Becton Dickinson) with a blue laser (488 nm) by applying tight gates on the FSC and SSC channels. Only cells displaying auto-fluorescence intensities were sorted in order to limit auto-activating BenM variants. Sorted cells were recovered in mineral medium, followed by subculturing (1:100) into mineral medium containing 1.4 mM (200 mg/L) cis,cis-muconic acid. The cells were grown for 24 h at 30° C., washed and subjected to a second round of FACS. […] Individual clones were subsequently validated using flow cytometry.
Events were analyzed using FlowJo software (TreeStar Inc.).
(In general: A flow cytometer gives signals particle by particle.)

Assay [2] has as its target T1, BenM^H110R, F211V, Y286N. The assay can be described thus: CCM biosensor output versus CCM titers in CCM-producing yeast strains (HPLC, flow cytometry). The assay is classed as cell-based. On the procedure:
The CCM production strains were cultivated in 24-deep well plate with air-penetrable lids (EnzyScreen) to test for the production of CCM. Colonies from the individual strain were inoculated in 1 mL synthetic drop-out medium (Sigma-Aldrich), selecting for URA, HIS and LEU markers, and grown at 30° C. with 250 rpm agitation at 5 cm orbit cast for 24 h. 300 μL of the overnight cultures were used to inoculate 3 mL mineral medium (pH 4.5) in 24-deep well plate and incubated for 24-72 h at the same conditions as above. Experiments were performed in triplicates. The culture broth was centrifuged 3,500×rpm and the supernatant analyzed for CCM concentration using HPLC. For this purpose, samples were analyzed for 45 min using Aminex HPX-87H ion exclusion column with a 1 mM H2SO4 flow of 0.6 mL/min. The temperature of the column was 60° C. Refractive index and UV detectors (Dionex) were used for detection of CCM (250 nm). CCM concentrations were quantified by comparison with the spectrum of the standards. […] Naringenin was quantified using a quadratic calibration curve with authentic standards ranging from 0.039 mg/I to 20 mg/I using QuanLynx software (Waters).
Events were analyzed using FlowJo software (TreeStar Inc.). […]

On to `O=C(O)/C=C\C=C/C(=O)O` [CCM, cis, cis-muconic acid], for which the “specificity of GFP induction among diacids tested” value in assay [1] (BenM^H110R, diacids 1.4 mM, pH 4.5, 24 h) is given as “induce GFP expression specifically in response to CCM”. The “maximum induction of GFP output” value in assay [1] (chromosomally integrated BenM^H110R, 1.4 mM (200 mg/L) CCM, 24 h) came out at 10 fold. In addition, the “GFP output upon CCM induction” value in assay [1] (plasmid-based expression of BenM^H110R) is listed as 6 fold. In assay [2] (72 h of cultivation), the “titers at which GFP outputs were saturated” value was > 1.41 mM and > 200 mg/L. For the same compound, in assay [2] (six CCM production strains and null strain, 24 h), the “correlation (r) between GFP output and CCM production titers” value was found to be 0.98.
